{"source": "paper PMC9555642", "about": "(PLoS ONE, 2022)", "target": "T1, HDAC10 (Homo sapiens, UniProt Q969S8)", "T1 construct": "purchased Eurofins Pharma Discovery Services 2662", "T1 sequence (Q969S8 1-669)": "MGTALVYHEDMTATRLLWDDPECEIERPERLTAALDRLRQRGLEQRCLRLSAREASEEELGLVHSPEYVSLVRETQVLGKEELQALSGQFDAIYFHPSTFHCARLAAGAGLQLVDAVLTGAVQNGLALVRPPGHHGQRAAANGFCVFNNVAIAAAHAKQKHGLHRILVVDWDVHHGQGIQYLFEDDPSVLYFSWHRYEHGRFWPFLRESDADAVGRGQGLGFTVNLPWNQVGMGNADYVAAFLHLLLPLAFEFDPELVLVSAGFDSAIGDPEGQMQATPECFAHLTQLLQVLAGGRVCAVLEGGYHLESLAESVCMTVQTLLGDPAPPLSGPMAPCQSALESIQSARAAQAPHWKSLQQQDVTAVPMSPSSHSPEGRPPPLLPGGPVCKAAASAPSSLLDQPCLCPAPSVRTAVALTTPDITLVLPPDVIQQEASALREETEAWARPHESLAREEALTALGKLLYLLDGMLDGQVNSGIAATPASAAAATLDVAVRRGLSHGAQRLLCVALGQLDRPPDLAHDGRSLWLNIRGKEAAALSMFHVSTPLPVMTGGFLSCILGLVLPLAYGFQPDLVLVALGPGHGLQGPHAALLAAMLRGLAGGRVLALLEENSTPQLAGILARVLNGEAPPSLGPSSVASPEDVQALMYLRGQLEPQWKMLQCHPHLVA", "assay": "HDAC enzymatic activity (Eurofins)", "format": "biochemical"}
{"compound": "O=C(CCCCCCNC(=O)c1cnc(N(c2ccccc2)c2ccccc2)nc1)NO", "note": "[Ricolinostat]", "values": [{"measurement": "IC50", "result": 0.901, "unit": "µM"}]}
